Here are results for one substance from US20200239587A1, “SENSITIZATION OF TUMORS TO THERAPIES THROUGH ENDOGLIN ANTAGONISM” (Cedars-Sinai Medical Center, priority 2016, published 2020).

Entries after “also recorded” stand apart in the source; their conditions may differ.

Assay [1] deals with PC3 cells. Kind of assay: Cell death assay with docetaxel and TRC105. It counts as cell-based, human. The following applies: different concentrations of docetaxel and TRC105. The procedure:
The PC3 cells used in the cell death assay were treated with different concentrations of docetaxel in the presence of different concentrations of TRC105.

Another assay has as its system CW22Rv1 cells. Kind of assay: Seahorse-XF mito-stress test. It counts as cell-based, human. The procedure:
Cells were analyzed for mito-stress test by Seahorse-XF 168 hours following 4 Gy of radiation in the presence of IgG or TRC105. FIG. 26A) Basal respiration, non-mito respiration, proton leak, spare respiratory capacity, FIG. 26B) extracellular acidification rate (ECAR) and FIG. 26C) mitochondrial dependent ATP production were quantitated using Wave 2.3.0 analysis. Data are reported as mean+/−S.D. of a representative experiment (n=5) of 3 independent experiments. FIGS. 26A-26C, the first/left column depicts 0Gy+IgG, the second column depicts 0Gy+TRC105, the third column depicts 4Gy+IgG and the last/right column depicts 4Gy+TRC105. FIG. 26D) 22Rv1 cells treated with IgG, TRC105 or nicotinamide were irradiated (4 Gy). Total cellular ATP was measured 0, 24, 72, 120, and 168 hours post radiation. Within each group, the left column is IgG, middle column is TRC105 and the right column is nicotinamide. Data are reported as mean+/−S.D. of 3 independent experiments. (***p<0.001, ****p<0.0001).

In another assay the test system is C4-2B. Kind of assay: Clonogenic survival assay with radiation. It is filed as cell-based, human. The following applies: 1 μg/ml TRC105 vs IgG, 0 to 6 Gy; p<0.001. The procedure: (§1) FIG. 18A) Cell surface CD105 expression was measured in PC3, C42b, and 22Rv1 72 hours after 4 Gy irradiation treatment by FACS analysis and compared to cells not irradiated (control). FIG. 18B) Cell surface CD105 expression was measured in cell lines following a dose range of irradiation (0, 2, 4, or 6 Gy). FIG. 18C) The durability of cell surface CD105 expression in 22Rv1 was determined 0, 0.5, 4, 8, 24, 48, 72, 120, and 168 hours following 4 Gy irradiation. CD105 cell surface expression fold change was normalized to levels expressed prior to irradiation. FIG. 18D) Western blot for phosphorylated-Smad1/5 was measured in CW22Rv1 cells in the presence or absence of serum starvation and treatment with 50 ng/ml BMP4 or 1 μg/ml TRC105. β-actin expression served as the loading control. FIG. 18E) Annexin-V expression was measured in 22Rv1 cells by FACS analysis 5 days following 4 Gy irradiation in the presence and absence of TRC105. FIG. 18F) Clonogenic assay was measured 10 days following irradiation of CW22Rv1 and C42b cells in a dose range of 0 to 6 Gy in the presence of 1 μg/ml IgG or TRC105. Data are reported as a mean+/−S.D. (**p<0.01, ***p<0.001).

Another assay deals with CW22Rv1. Kind of assay: Clonogenic survival assay with radiation. The following applies: 1 μg/ml TRC105 vs IgG, 0 to 6 Gy; p<0.001. It counts as cell-based, human. The procedure: as §1
In a further assay the test system is mtDNA in 22Rv1 cells. Kind of assay: Mitochondrial DNA quantitation. It is filed as cell-based, human. The following applies: radiation in the presence of TRC105; p<0.0001. The procedure: FIGS. 24A-24D depict that PGC1α and mitochondrial biogenesis are regulated by BMP/CD105. 22Rv1 cells were incubated with IgG or TRC105 with or without 4 Gy irradiation. All measurements were made 72 hours post radiation. FIG. 24A) Western blot for whole cell lysate, nuclear and cytoplasmic fractions were independently analyzed for PGC1α expression. Loading controls included β-actin (whole cell), lamin B (nuclear marker), and Rho A (cytoplasm marker). FIG. 24B) Immunofluorescent localization of PGC1α was visualized with DAPI nuclear counterstain. FIG. 24C) mRNA expression of PGC1α target genes, NRF1, MTFA, and CPT1C was measured. mRNA expression was normalized to GAPDH and untreated IgG 0 Gy. FIG. 24D) Mitochondrial DNA (mtDNA) was measured from total DNA extracts and normalized to nuclear DNA and compared to untreated IgG 0 Gy. Data are reported as means+/−S.D. of 3 independent experiments. (***p<0.001, ****p<0.0001).

For assay [2], the system named is PC3 cells. Kind of assay: MTT proliferation assay. The following applies: enzalutamide in the presence of TRC105. It is filed as cell-based, human. The procedure: (§2) CW22Rv1, C42B, and PC3 cells from ATCC were expanded as directed. Prostatectomy specimens from Cedars-Sinai Medical Center or the Greater Los Angeles Veterans Affairs were cultured to generate NAF and CAF cells using the same method, as C57BL/6 mouse wild-type prostatic fibroblasts were grown as previously reported (Franco et al., 2011, Cancer research 71, 1272-1281; Kiskowski et al., 2011, Cancer research 68, 4709-4718). TRC105 and M1043 were provided by TRACON Pharmaceuticals, Inc. (San Diego, Calif.). Enzalutamide (Xtandi) was purchased from Medivation (San Francisco, Calif.).
(§3) 3000 cells per 96-well were treated for 72 hours using 5 wells per treatment. MTT reagent (M6494, Life Technologies) was prepared as directed, incubated for one hour at 37° C., and analyzed using manufacturer's recommendations.

In another assay the test system is Rv1. Kind of assay: MTT proliferation assay. It counts as cell-based, human. The following applies: TRC105 plus enzalutamide. The procedure:
as §2, §3

Another assay concerns C42B. Kind of assay: MTT proliferation assay. It is filed as cell-based, human. The following applies: TRC105 plus enzalutamide. The procedure:
as §2, §3

Assay [3] deals with ID1 mRNA expression by Rv1 cells and mouse wild-type fibroblasts. Kind of assay: Species specificity of CD105 antagonists, BMP-induced ID1 mRNA. It is filed as cell-based, human. The following applies: 1 μg/ml; BMP 50 ng/mL, 6 hours. The procedure:
All cells were pre-treated overnight in serum free media, then incubated with BMP (50 ng/mL) in the presence or absence of differing concentrations of concentrations of TRC105 or M1043 for 6 hours (mean+/−SD). Within each group, the left column depicts human PCa and right column depicts mouse fibroblasts.
Total RNA was extracted using the RNeasy kit (Qiagen). 1 μg RNA was used for cDNA synthesis using iSCRIPT cDNA synthesis kit (1708891, Bio-Rad). Quantitative RT-PCR was performed with 5 replicates using the Step One Real-Time PCR system (Applied Biosystems). Gene mRNA expression was normalized to GAPDH. Primer sequences can be found in the Table 1. For RNA-sequencing, Ion Proton AmpliSeq Transcriptome RNA Sequencing was performed achieving an average of 3M reads. We mapped an average of 88% of the reads to the human genome with Torrent Suite version 4.4.2.

The test system of assay [4] is androgen receptor variants and RNPC1. Kind of assay: Androgen receptor variants and RNPC1 expression. It is filed as cell-based.

With “TRC105: partially humanized monoclonal antibody that blocks BMP signaling; human-specific CD105 (endoglin) neutralizing antibody from Tracon Pharmaceuticals”, in the assay with PC3 cells [1], the “sensitization to docetaxel, cell death” value is recorded as “taxane sensitizer”. The “mitochondrial dependent ATP production” value is “depletion of mitochondrial dependent ATP production” with CW22Rv1 cells (TRC105 alone); “further depletion” with CW22Rv1 cells (combination of radiation and TRC105 vs either agent alone). In the assay with CW22Rv1 cells (TRC105 plus 4 Gy vs radiation alone), the spare respiratory capacity entry is reported as “further decrease in spare respiratory capacity”. For the same substance, in the assay on CW22Rv1 cells (TRC105 plus 4 Gy vs radiation alone, 168 hours), the basal oxidative phosphorylation entry was “decrease in basal oxidative phosphorylation”. Moreover, the “glycolysis (extracellular acidification)” value in the assay with CW22Rv1 cells (addition of TRC105 in the context of radiation) was “blocked glycolysis”. Moreover, the “radiation sensitivity, clonogenic survival” value in the assay with C4-2B and in the assay on CW22Rv1 was “sensitized prostate cancer cells to radiation” throughout. Besides, the mtDNA result in the assay on mtDNA in 22Rv1 cells is listed as “dramatic down regulation of mtDNA”. Moreover, in the assay with PC3 cells [2], the “viability (MTT)” value is given as “insensitive”. In addition, the “cell proliferation (MTT), addition of TRC105 to enzalutamide” value in the assay on Rv1 and with C42B was “no additional impact” each time. Also, in assay [3], the cross-species reactivity result is “no cross-species reactivity”. Also, the “RNPC1 (RBM38) expression” value in [4] (TRC105) is given as “down regulated”. The “androgen receptor variants expression” value in assay [4] (TRC105) is “down regulated; also recorded: down-regulated”. For the same substance, the “Notch and IL-6 mediated ARv expression” value in assay [4] (antagonizing endoglin) is “down regulate Notch and IL-6 mediated ARv expression”.
